pIC50: −log10 of the molar value.
Experiments:
CDK1/Cyclin B1 = CDK1/Cyclin B1 (Homo sapiens, UniProt P06493); experiment: CDK1/Cyclin B1 Biochemical Assay (TR-FRET), 1 mM ATP; conditions: 0.15 μM Rb (Ser780)-biotin substrate, pH7.0, 60 min preincubation, 90 min reaction, room temperature
Method: (§1) CDK2/Cyclin E1 and CDK1/Cyclin B1 Biochemical Assays
(§2) Compounds disclosed herein were tested for inhibition of CDK2/Cyclin E1 or CDK1/Cyclin B1 kinase in an assay based on the time-resolved fluorescence-resonance energy transfer (TR-FRET) methodology. The assay was carried out in 384-well low volume black plates in a reaction mixture containing CDK2/Cyclin E1 or CDK1/Cyclin B1, 1 mM ATP for CDK2/Cyclin E1 and CDK1/Cyclin B1, 0.15 μM Rb (Ser780)-biotin substrate and 0-10 μM compound in buffer containing 50 mM HEPES pH7.0, 0.02% NaN3, 0.01% BSA, 0.1 mM Orthovanadate, 50 mM MgCl2, 1 mM DTT and 0.005% Tween-20. The kinase was incubated with compound for 60 minutes at room temperature and the reaction was initiated by the addition of ATP and Rb (Ser780)-biotin substrate. After reaction at room temperature for 90 minutes, an equal volume of stop/detection solution was added according to the manufacture's instruction (Cisbio Bioassays). The stop/detection solution contained Streptavidin-XL665 and Anti-pRb (Ser780) mAb-Eu Cryptate in Detection buffer (Cisbio Bioassays). Plates were incubated at room temperature for 60 minutes, and the TR-FRET signals (ex337 nm, em665 nm/620 nm) were recorded on a PHERAstar FSX plate reader (BMG Labtech). The inhibition percentage of CDK2/Cyclin E1 or CDK1/Cyclin B1 kinase activity in presence of increasing concentrations of compounds was calculated based on the ratio of fluorescence at 665 nm to that at 620 nm. The IC50 for each compound was derived from fitting the data to the four-parameter logistic equation by Dotmatics.

CDK2/Cyclin E1 = CDK2/Cyclin E1 (Homo sapiens, UniProt P24941); experiment: CDK2/Cyclin E1 Biochemical Assay (TR-FRET), 1 mM ATP; conditions: 0.15 μM Rb (Ser780)-biotin substrate, pH7.0, 60 min preincubation, 90 min reaction, room temperature
Method: as §1, §2

Chain of CDK1/Cyclin B1 (P06493 whole entry): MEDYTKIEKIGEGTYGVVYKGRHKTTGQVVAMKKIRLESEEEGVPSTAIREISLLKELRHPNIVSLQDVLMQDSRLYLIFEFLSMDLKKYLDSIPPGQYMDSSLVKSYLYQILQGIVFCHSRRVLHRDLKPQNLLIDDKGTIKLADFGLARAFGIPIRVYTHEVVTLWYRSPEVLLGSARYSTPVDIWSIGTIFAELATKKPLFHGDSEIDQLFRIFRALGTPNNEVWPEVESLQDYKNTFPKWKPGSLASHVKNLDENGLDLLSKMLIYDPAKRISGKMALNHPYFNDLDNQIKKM
Chain of CDK1/Cyclin B1 (P14635 whole entry partner): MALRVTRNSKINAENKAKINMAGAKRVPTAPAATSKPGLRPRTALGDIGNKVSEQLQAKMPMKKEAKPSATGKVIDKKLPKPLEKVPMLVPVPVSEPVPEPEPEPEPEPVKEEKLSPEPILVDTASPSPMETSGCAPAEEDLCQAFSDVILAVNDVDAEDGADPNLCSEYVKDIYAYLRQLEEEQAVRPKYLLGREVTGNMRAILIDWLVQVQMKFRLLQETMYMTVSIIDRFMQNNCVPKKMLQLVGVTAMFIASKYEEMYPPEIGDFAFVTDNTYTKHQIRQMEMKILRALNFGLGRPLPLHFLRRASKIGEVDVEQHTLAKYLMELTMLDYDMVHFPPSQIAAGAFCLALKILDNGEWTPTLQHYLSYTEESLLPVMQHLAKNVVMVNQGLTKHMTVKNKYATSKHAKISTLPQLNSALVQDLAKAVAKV

pIC50 (CDK1/Cyclin B1)	pIC50 (CDK2/Cyclin E1)	SMILES
6.46	9.15	CC1(NC(=O)O[C@H]2CC[C@@H](c3cc(Nc4ccc5c(c4F)CCS(=O)(=O)N5)n[nH]3)C2)CC1 (relative stereo) [Example 462, cis-3-(3-((5-fluoro-2,2-dioxido-3,4-dihydro-1H-benzo[c][1,2]thiazin-6-yl)amino)-1H-pyrazol-5-yl)cyclopentyl(1-methylcyclopropyl)carbamate]
5.31	7.74	CC(C)NC(=O)O[C@H]1CC[C@@H](c2cc(Nc3ccc4c(c3F)NS(=O)(=O)N4)n[nH]2)C1 (relative stereo) [Example 465, cis-3-(3-((4-fluoro-2,2-dioxido-1,3-dihydrobenzo[c][1,2,5]thiadiazol-5-yl)amino)-1H-pyrazol-5-yl)cyclopentyl isopropylcarbamate]
< 5.00	7.20	CC(C)NC(=O)O[C@H]1CC[C@@H](c2cc(Nc3ccc4c(c3F)N(C)S(=O)(=O)N4)n[nH]2)C1 (relative stereo) [Example 466, cis-3-(3-((4-fluoro-3-methyl-2,2-dioxido-1,3-dihydrobenzo[c][1,2,5]thiadiazol-5-yl)amino)-1H-pyrazol-5-yl)cyclopentyl isopropylcarbamate]
< 5.00	6.28	CC(C)NC(=O)O[C@H]1CC[C@@H](c2cc(Nc3ccc4c(c3F)NS(=O)(=O)N4C)n[nH]2)C1 (relative stereo) [Example 467, cis-3-(3-((4-fluoro-1-methyl-2,2-dioxido-1,3-dihydrobenzo[c][1,2,5]thiadiazol-5-yl)amino)-1H-pyrazol-5-yl)cyclopentyl isopropylcarbamate]
5.43	7.92	CC(C)NC(=O)O[C@H]1CC[C@@H](c2cc(Nc3ccc4c(c3F)CS(=O)(=O)N4CC(C)(C)O)n[nH]2)C1 (single isomer, unassigned) [Example 254a, cis-3-(3-((4-fluoro-1-(2-hydroxy-2-methylpropyl)-2,2-dioxido-1,3-dihydrobenzo[c]isothiazol-5-yl)amino)-1H-pyrazol-5-yl)cyclopentyl isopropylcarbamate]
5.86	8.05	CC(C)NC(=O)O[C@H]1CC[C@@H](c2cc(Nc3ccc4c(c3F)CS(=O)(=O)N4CC(C)(C)O)n[nH]2)C1 (single isomer, unassigned) [Example 254b, cis-3-(3-((4-fluoro-1-(2-hydroxy-2-methylpropyl)-2,2-dioxido-1,3-dihydrobenzo[c]isothiazol-5-yl)amino)-1H-pyrazol-5-yl)cyclopentyl isopropylcarbamate]
< 5.00	7.08	CN1c2ccc(Nc3cc([C@@H]4CC[C@H](OC(=O)NCC(C)(C)O)C4)[nH]n3)c(F)c2CS1(=O)=O (single isomer, unassigned) [Example 330a, cis-3-(3-((4-fluoro-1-methyl-2,2-dioxido-1,3-dihydrobenzo[c]isothiazol-5-yl)amino)-1H-pyrazol-5-yl)cyclopentyl(2-hydroxy-2-methylpropyl)carbamate]
5.39	7.62	CN1c2ccc(Nc3cc([C@@H]4CC[C@H](OC(=O)NCC(C)(C)O)C4)[nH]n3)c(F)c2CS1(=O)=O (single isomer, unassigned) [Example 330b, cis-3-(3-((4-fluoro-1-methyl-2,2-dioxido-1,3-dihydrobenzo[c]isothiazol-5-yl)amino)-1H-pyrazol-5-yl)cyclopentyl(2-hydroxy-2-methylpropyl)carbamate]
5.10	7.85	CC(C)(CO)NC(=O)O[C@H]1CC[C@@H](c2cc(Nc3ccc4c(c3F)CN(C3CC3)S4(=O)=O)n[nH]2)C1 (single isomer, unassigned) [Example 359a, cis-3-(3-((2-cyclopropyl-4-fluoro-1,1-dioxido-2,3-dihydrobenzo[d]isothiazol-5-yl)amino)-1H-pyrazol-5-yl)cyclopentyl(1-hydroxy-2-methylpropan-2-yl)carbamate]
5.54	8.15	CC(C)(CO)NC(=O)O[C@H]1CC[C@@H](c2cc(Nc3ccc4c(c3F)CN(C3CC3)S4(=O)=O)n[nH]2)C1 (single isomer, unassigned) [Example 359b, cis-3-(3-((2-cyclopropyl-4-fluoro-1,1-dioxido-2,3-dihydrobenzo[d]isothiazol-5-yl)amino)-1H-pyrazol-5-yl)cyclopentyl(1-hydroxy-2-methylpropan-2-yl)carbamate]
5.62	8.66	CC(C)(CO)NC(=O)O[C@H]1CC[C@@H](c2cc(Nc3ccc4c(c3F)CS(=O)(=O)N4C3CC3)n[nH]2)C1 (single isomer, unassigned) [Example 363a, cis-3-(3-((1-cyclopropyl-4-fluoro-2,2-dioxido-1,3-dihydrobenzo[c]isothiazol-5-yl)amino)-1H-pyrazol-5-yl)cyclopentyl(1-hydroxy-2-methylpropan-2-yl)carbamate]
6.06	8.82	CC(C)(CO)NC(=O)O[C@H]1CC[C@@H](c2cc(Nc3ccc4c(c3F)CS(=O)(=O)N4C3CC3)n[nH]2)C1 (single isomer, unassigned) [Example 363b, cis-3-(3-((1-cyclopropyl-4-fluoro-2,2-dioxido-1,3-dihydrobenzo[c]isothiazol-5-yl)amino)-1H-pyrazol-5-yl)cyclopentyl(1-hydroxy-2-methylpropan-2-yl)carbamate]
5.49	8.64	O=C(NC12CC(C1)C2)O[C@H]1CC[C@@H](c2cc(Nc3cc4c(cc3F)S(=O)(=O)NC4)n[nH]2)C1 (single isomer, unassigned) [Example 422a, cis-3-(3-((6-fluoro-1,1-dioxido-2,3-dihydrobenzo[d]isothiazol-5-yl)amino)-1H-pyrazol-5-yl)cyclopentyl bicyclo[1.1.1]pentan-1-ylcarbamate]
6.01	9.00	O=C(NC12CC(C1)C2)O[C@H]1CC[C@@H](c2cc(Nc3cc4c(cc3F)S(=O)(=O)NC4)n[nH]2)C1 (single isomer, unassigned) [Example 422b, cis-3-(3-((6-fluoro-1,1-dioxido-2,3-dihydrobenzo[d]isothiazol-5-yl)amino)-1H-pyrazol-5-yl)cyclopentyl bicyclo[1.1.1]pentan-1-ylcarbamate]
6.84	8.96	CC1(NC(=O)O[C@@H]2CC[C@H](c3cc(Nc4ccc5c(c4F)CS(=O)(=O)N5)n[nH]3)C2)CCC1 (single isomer, unassigned) [Example 427a]
7.17	9.10	CC1(NC(=O)O[C@H]2CC[C@@H](c3cc(Nc4ccc5c(c4F)CS(=O)(=O)N5)n[nH]3)C2)CCC1 (single isomer, unassigned) [Example 427b]
5.75	8.44	CC(C)NC(=O)O[C@@H]1CC[C@H](c2cc(Nc3ccc4c(c3F)CCS(=O)(=O)N4)n[nH]2)C1 (single isomer, unassigned) [Example 430a]
6.11	8.66	CC(C)NC(=O)O[C@H]1CC[C@@H](c2cc(Nc3ccc4c(c3F)CCS(=O)(=O)N4)n[nH]2)C1 (single isomer, unassigned) [Example 430b]
5.51	7.74	CCCNC(=O)O[C@@H]1CC[C@H](c2cc(Nc3ccc4c(c3F)CS(=O)(=O)N4CC(C)(C)O)n[nH]2)C1 [Example 433a]
5.84	7.74	CCCNC(=O)O[C@H]1CC[C@@H](c2cc(Nc3ccc4c(c3F)CS(=O)(=O)N4CC(C)(C)O)n[nH]2)C1 [Example 433b]
6.85	9.40	CC(C)(C)NC(=O)O[C@H]1CC[C@@H](c2cc(Nc3ccc4c(c3F)CCS(=O)(=O)N4)n[nH]2)C1 [Example 463, (1S,3R)-3-(3-((5-fluoro-2,2-dioxido-3,4-dihydro-1H-benzo[c][1,2]thiazin-6-yl)amino)-1H-pyrazol-5-yl)cyclopentyl tert-butylcarbamate]
6.49	9.10	CC(C)(C)NC(=O)O[C@@H]1CC[C@H](c2cc(Nc3ccc4c(c3F)CCS(=O)(=O)N4)n[nH]2)C1 [Example 464, (1R,3S)-3-(3-((5-fluoro-2,2-dioxido-3,4-dihydro-1H-benzo[c][1,2]thiazin-6-yl)amino)-1H-pyrazol-5-yl)cyclopentyl tert-butylcarbamate]
